Laboratory results as given in ChEMBL document CHEMBL3885861, “Open TG-GATES”.

Species on record: Rattus norvegicus
Assay: Open TG-GATES - Regimen: Single
Format: toxicity, organism-based, Sprague-Dawley
Set-up: regimen Single, gender Male, age 6 weeks
Details: in vivo, po, 200 mg/kg, route gavage, dose level Middle; for APTT / Bas / Eos / Fbg / Hb / Ht / Lym / MCH / MCHC / MCV / Mono / Neu / PT / Plat / RBC / Ret / WBC: tissue Blood; for KIDNEY_L / KIDNEY_R / KIDNEY_TOTAL: tissue Kidney; for LIVER: tissue Liver; for A/G / ALP / ALT / AST / BUN / CRE / Ca / Cl / DBIL / GLC / IP / K / LDH / Na / PL / RALB / TBIL / TC / TG / TP / gamma-GTP: tissue Plasma

Work on `C[C@](N)(Cc1ccc(O)c(O)c1)C(=O)O` [METHYLDOPA] yielded a TERMINAL_BW (3 h) of 187.9 g, an APTT (3 h) of 15.7 s and a Bas (3 h) of 0.2%. It also gave an Eos (3 h) of 0.8%, a Fbg (3 h) of 274 mg/dL and a Hb (3 h) of 13.1 g/dL. For the same compound, the Ht (3 h) was 39.2%, the Lym (3 h) was 79% and the MCH (3 h) was 21.5 pg. For the same compound, the MCHC (3 h) was 33.4%, the MCV (3 h) was 64.6 fL and the Mono (3 h) was 3.4%. It also gave a Neu (3 h) of 15.8%, a PT (3 h) of 12.4 s and a Plat (3 h) of 105.6 x10_4/uL. It also gave an RBC (3 h) of 607 x10_4/ul, a Ret (3 h) of 10.7% and a WBC (3 h) of 91.2 x10_2/uL. The KIDNEY_L (3 h) was 0.9 g, the KIDNEY_R (3 h) was 0.8 g and the KIDNEY_TOTAL (3 h) was 1.7 g. It also gave an LIVER (3 h) of 7.8 g, an A/G (3 h) of 0.9 and an ALP (3 h) of 1861.2 IU/L. It also gave an ALT (3 h) of 55 IU/L, an AST (3 h) of 80.2 IU/L and a BUN (3 h) of 9 mg/dL. It also gave a CRE (3 h) of 0.1 mg/dL, a Ca (3 h) of 11.4 mg/dL and a Cl (3 h) of 107.2 meq/L. It also gave a DBIL (3 h) of 0.008 mg/dL, a GLC (3 h) of 205.8 mg/dL and an IP (3 h) of 9.8 mg/dL. The K (3 h) was 4.6 meq/L, the LDH (3 h) was 64.4 IU/L and the Na (3 h) was 142.2 meq/L. For the same compound, the PL (3 h) was 129.2 mg/dL, the RALB (3 h) was 2.6 g/dL and the TBIL (3 h) was 0.058 mg/dL. It also gave a TC (3 h) of 78.6 mg/dL, a TG (3 h) of 45 mg/dL and a TP (3 h) of 5.4 g/dL. For the same compound, the gamma-GTP (3 h) was 1.2 IU/L, the TERMINAL_BW (6 h) was 189 g and the APTT (6 h) was 16.4 s. For the same compound, the Bas (6 h) was 0%, the Eos (6 h) was 0.6% and the Fbg (6 h) was 267.4 mg/dL. For the same compound, the Hb (6 h) was 13.5 g/dL, the Ht (6 h) was 41.1% and the Lym (6 h) was 73.8%. The MCH (6 h) was 21.1 pg, the MCHC (6 h) was 32.8% and the MCV (6 h) was 64.3 fL. For the same compound, the Mono (6 h) was 3%, the Neu (6 h) was 22.2% and the PT (6 h) was 12.2 s. For the same compound, the Plat (6 h) was 120.2 x10_4/uL, the RBC (6 h) was 640.2 x10_4/ul and the Ret (6 h) was 11.7%. For the same compound, the WBC (6 h) was 56.8 x10_2/uL, the KIDNEY_L (6 h) was 0.8 g and the KIDNEY_R (6 h) was 0.8 g. The KIDNEY_TOTAL (6 h) was 1.6 g, the LIVER (6 h) was 7.9 g and the A/G (6 h) was 0.9. It also gave an ALP (6 h) of 1438.2 IU/L, an ALT (6 h) of 48.2 IU/L and an AST (6 h) of 71.6 IU/L. The BUN (6 h) was 6.6 mg/dL, the CRE (6 h) was 0.1 mg/dL and the Ca (6 h) was 11.8 mg/dL. It also gave a Cl (6 h) of 107 meq/L, a DBIL (6 h) of 0.006 mg/dL and a GLC (6 h) of 219.4 mg/dL. The IP (6 h) was 13 mg/dL, the K (6 h) was 5.3 meq/L and the LDH (6 h) was 58.8 IU/L. It also gave a Na (6 h) of 144.6 meq/L, a PL (6 h) of 130.2 mg/dL and an RALB (6 h) of 2.5 g/dL. It also gave a TBIL (6 h) of 0.054 mg/dL, a TC (6 h) of 85.8 mg/dL and a TG (6 h) of 45.8 mg/dL. For the same compound, the TP (6 h) was 5.3 g/dL and the gamma-GTP (6 h) was 1 IU/L.
